What was measured:
[1] = target: Eef2 kinase (Homo sapiens, UniProt O00418); assay: Eef2 kinase inhibition; format: biochemical
[2] = tested on: MCF7 cell line; assay: In vitro cytotoxic activity, MTT method, MCF7; format: cell-based, human
Outline: (§1)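 MTT assay: cells seeded at 10^5 cells/mL, grown 24 h at 37 °C to a monolayer, then exposed to serial tetrahydroisoquinoline concentrations at 37 °C. MTT (5 mg/mL stock) added for 1–5 h; OD read at 560 nm minus 620 nm background. Doxorubicin as positive control.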

[3] = tested on: A549 cell line; assay: In vitro cytotoxic activity, MTT method, A549
Outline: as §1

[4] = DPPH scavenging antioxidant activity
Method: The antioxidant activity of ten compounds was determined using DPPH [32–34]. A solution 1: prepared by dissolving DPPH (0.002 g) in ethanol (50 mL etnanol). Solution 2: prepared by dissolving different weights 0.05, 0.01 g of each sample in 1 mL of DMSO then take 10 µL of each sample solution with 1 mL ethanol. Then mix 1 mL of solution 1 with 1 mL of solution 2 then vortex the resulting mixture in the dark for about 30 min. The absorbance of the mixture was measured by spectrophotometer at λmax = 517 nm against blank 1 mL absolute ethanol and compared to the ascorbic acid (Vitamin C).
Ten newly synthesized compounds were studied as in vitro antioxidants by measuring of their DPPH scavenging activity which is represented as a percentage % [32]^. Results are represented by mean ± SD of three replicates. […] The higher dose concentration of 0.05 μg/mL represents higher antioxidant activity. […] The high antioxidant activity is referred to the presence of C=O, NH2, and OH groups like ascorbic acid which can be easily oxidized and reduced and can be used as antioxidant drugs. (Fig. 8 and Table 9).

## CCCCCCCCCCCCCCCCn1cc[n+](Cc2ccccc2)c1C.[I-] [NH125, reference compound]
[1]; Eef2, conc 0.01 (log -2)
  %inh: 20.1%
[1]; Eef2, conc 0.1 (log -1)
  %inh: 33.9%
[1]; Eef2, conc 1 (log 0)
  %inh: 62.7%
[1]; Eef2, conc 10 (log 1)
  %inh: 84.3%
[1]; Eef2, conc 100 (log 2)
  %inh: 92.6%

## CC(=O)c1ccc(NC(=O)CSc2nc(C)c3c(c2C#N)CC(C)(O)C(C(C)=O)C3c2ccc(N(C)C)cc2)cc1 (stereo not shown) [Compound 7d, 2-[(7-Acetyl-4-cyano-1,6-dimethyl-6-hydroxy-8-(4-N,N-dimethylamino-phenyl)-5,6,7,8-tetrahydroisoquinolin-3-yl)thio]-N-(4-acetylphenyl)acetamide]
[2]; Homo sapiens, MCF7, MCF7 cell line, MTT
  IC50: 495 ± 2 nM
[2]; MCF7, 0.0487 µMol
  Toxicity %: 1.8855%
  Viability %: 98.2255%
[2]; MCF7, 0.0975 µMol
  Toxicity %: 3.5566%
  Viability %: 96.5544%
[2]; MCF7, 0.195 µMol
  Toxicity %: 5.106%
  Viability %: 94.89%
[2]; MCF7, 0.391 µMol
  Toxicity %: 28.72%
  Viability %: 71.28%
[2]; MCF7, 0.781 µMol
  Toxicity %: 52.53%
  Viability %: 47.47%
[2]; MCF7, 1.562 µMol
  Toxicity %: 65.69%
  Viability %: 34.31%
[2]; MCF7, 3.125 µMol
  Toxicity %: 76.63%
  Viability %: 23.37%
[2]; MCF7, 6.25 µMol
  Toxicity %: 94.04%
  Viability %: 5.964%
[2]; MCF7, 12.5 µMol
  Toxicity %: 96.65%
  Viability %: 3.35%
[2]; MCF7, 25 µMol
  Toxicity %: 96.73%
  Viability %: 3.268%
[3]; A549, Conc. 0.04875 µMol
  Toxicity %: 1.982%
  Viability %: 98.02%
[3]; A549, Conc. 0.0975 µMol
  Toxicity %: 2.4569%
  Viability %: 97.5431%
[3]; A549, Conc. 0.195 µMol
  Toxicity %: 3.708%
  Viability %: 96.29%
[3]; A549, Conc. 0.391 µMol
  Toxicity %: 36.8%
  Viability %: 63.2%
[3]; A549, Conc. 0.781 µMol
  Toxicity %: 53.89%
  Viability %: 46.11%
[3]; A549, Conc. 1.562 µMol
  Toxicity %: 70.45%
  Viability %: 29.55%
[3]; A549, Conc. 3.125 µMol
  Toxicity %: 77.08%
  Viability %: 22.92%
[3]; A549, Conc. 6.25 µMol
  Toxicity %: 86.79%
  Viability %: 13.21%
[3]; A549, Conc. 12.5 µMol
  Toxicity %: 92.98%
  Viability %: 7.022%
[3]; A549, Conc. 25 µMol
  Toxicity %: 96.61%
  Viability %: 3.393%
[3]; Homo sapiens, read-out: IC50 ± SD
  IC50: 446 ± 4 nM
[4]; 0.01 µg/mL
  DPPH scavenging, inhibition (%): 48.08 ± 0.87%
[4]; 0.05 µg/mL
  DPPH scavenging, inhibition (%): 69.73 ± 0.73%
